Earlier results in US7479499B2 (Celgene Corporation, priority 2000, dated 2009).

What was measured:
[1] = system: metastatic colorectal cancer patients
[2] = system: patients with metastatic colorectal cancer; conditions: irinotecan monotherapy
[3] = second line treatment of colorectal cancer after 5FU

SMILES	complete responses ([1]; metastatic colorectal cancer)	partial responses, share of patients ([1]; metastatic colorectal cancer)	debilitating (Grade 3-4) late onset diarrhea, share of patients ([1]; late onset: more than 24 hours after administration)	complete response rate [1, 3]	median duration of response [1, 3]	overall response rates [1, 3]	early onset diarrhea, frequency ([1]; within 24 hours of drug administration)	Expected (%) Grade 1-4 Abdominal colic/pain ([2]; abdominal colic/pain, grade 1-4)	Expected (%) Grade 3-4 Abdominal colic/pain ([2]; abdominal colic/pain, grade 3-4)	Expected (%) Grade 1-4 Asthenia ([2]; asthenia, grade 1-4)	Expected (%) Grade 3-4 Asthenia ([2]; asthenia, grade 3-4)	Expected (%) Grade 1-4 Constipation ([2]; constipation, grade 1-4)	Expected (%) Grade 3-4 Constipation ([2]; constipation, grade 3-4)	Expected (%) Grade 1-4 Diarrhea (Late) ([2]; late diarrhea, grade 1-4)	Expected (%) Grade 3-4 Diarrhea (Late) ([2]; late diarrhea, grade 3-4)	Expected (%) Grade 1-4 Nausea ([2]; nausea, grade 1-4)	Expected (%) Grade 1-4 Vomiting ([2]; vomiting, grade 1-4)	Expected (%) Grade 3-4 Vomiting ([2]; vomiting, grade 3-4)
O=c1[nH]cc(F)c(=O)[nH]1 [5FU, 5-fluorouracil]	extremely rare	less than 25%	–	–	–	–	–	–	–	–	–	–	–	–	–	–	–	–
CCc1c2c(nc3ccc(OC(=O)N4CCC(N5CCCCC5)CC4)cc13)-c1cc3c(c(=O)n1C2)COC(=O)[C@]3(O)CC [Irinotecan, (4S)-4,11-diethyl-4-hydroxy-9-[(4-piperidino-piperidino)carbonyl-oxy]1H-pyranol-[3′,4′:6,7]indolizinol[1,2-b]quinoline-3,14-(4H,12H)dione]	–	–	30-40%	less than one percent	6.4 months	less than 20%	uncommon	23.7%	2.3%	75.7%	12.2%	29.9%	2.0%	87.8%	30.6%	86.2%	66.8%	12.5%
